# Measured values: ChEMBL document CHEMBL1201862, “PubChem BioAssay data set” (2004)
# Several values for one entry are separate records, joined by “and”; a condition that tells them apart may be missing. Equal values may be shown once. Activity calls are given as the source filed them.
# What was measured:
# [1] = biological target: T1, RNA-binding protein pos-1 (Caenorhabditis elegans, UniProt G5EF15); experiment: disruptors of C. elegans POS-1 RNA interaction – biochemical, fluorescence polarization, dose response (AID 1964);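 also: purified POS-1 fused to maltose binding protein made in E. coli; potency of compounds blocking POS-1 binding to fluorescent RNA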
# T1 sequence (G5EF15 whole entry): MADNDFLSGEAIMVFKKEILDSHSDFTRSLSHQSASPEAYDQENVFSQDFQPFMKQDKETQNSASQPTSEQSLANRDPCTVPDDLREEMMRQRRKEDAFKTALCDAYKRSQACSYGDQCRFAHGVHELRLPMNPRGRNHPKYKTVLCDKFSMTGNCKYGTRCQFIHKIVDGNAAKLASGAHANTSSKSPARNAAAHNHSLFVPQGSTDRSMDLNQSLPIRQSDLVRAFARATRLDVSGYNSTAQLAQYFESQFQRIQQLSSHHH
# [2] = biological target: T2, Zinc finger protein mex-5 (Caenorhabditis elegans, UniProt Q9XUB2); experiment: potency of MEX-5 RNA-binding blockers – biochemical, C. elegans, fluorescence polarization, dose response (AID 1960)
# T2 sequence (Q9XUB2 whole entry): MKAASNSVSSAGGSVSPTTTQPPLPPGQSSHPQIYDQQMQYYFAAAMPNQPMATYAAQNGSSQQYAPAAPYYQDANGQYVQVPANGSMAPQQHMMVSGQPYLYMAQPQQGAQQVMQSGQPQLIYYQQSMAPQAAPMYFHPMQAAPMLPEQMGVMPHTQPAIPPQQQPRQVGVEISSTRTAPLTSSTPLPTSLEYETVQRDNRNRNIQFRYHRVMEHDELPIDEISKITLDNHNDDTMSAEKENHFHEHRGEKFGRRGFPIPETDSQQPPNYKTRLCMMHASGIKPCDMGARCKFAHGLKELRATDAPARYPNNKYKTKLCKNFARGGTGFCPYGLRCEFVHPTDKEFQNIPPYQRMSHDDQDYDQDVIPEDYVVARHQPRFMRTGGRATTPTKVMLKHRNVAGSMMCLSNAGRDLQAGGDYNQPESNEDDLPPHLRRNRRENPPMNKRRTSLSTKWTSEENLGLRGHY
# Cysteine protease ATG4B = biological target: T3, Cysteine protease ATG4B (Homo sapiens, UniProt Q9Y4P1); type: functional;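 also: Fluorescence-based dose-response confirmation assay measuring inhibition of ATG4B activity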
# T3 sequence (Q9Y4P1 whole entry): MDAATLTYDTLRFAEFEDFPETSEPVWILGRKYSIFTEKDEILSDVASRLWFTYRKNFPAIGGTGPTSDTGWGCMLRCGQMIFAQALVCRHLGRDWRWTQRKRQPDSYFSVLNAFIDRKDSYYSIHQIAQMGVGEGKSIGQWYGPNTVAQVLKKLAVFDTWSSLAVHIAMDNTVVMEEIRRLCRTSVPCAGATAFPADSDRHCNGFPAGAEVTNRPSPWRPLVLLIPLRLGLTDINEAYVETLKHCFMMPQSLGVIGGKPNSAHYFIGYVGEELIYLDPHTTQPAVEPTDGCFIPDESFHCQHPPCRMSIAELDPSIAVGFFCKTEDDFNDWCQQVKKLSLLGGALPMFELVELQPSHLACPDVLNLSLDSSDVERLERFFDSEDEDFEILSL
# Phospholipase A2 = Phospholipase A2 (Homo sapiens, UniProt P04054); type: functional;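 also: confirmatory dose-response counterscreen on phospholipase A2, testing hits that came from an ultra-high-throughput screen for ATG4B inhibitors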
# Aminopeptidase N = biological target: T4, Aminopeptidase N (Plasmodium falciparum FcB1/Columbia, UniProt O96935); experiment: malaria alanyl aminopeptidase activity blockers – biochemical, fluorogenic H-Leu-NHMec substrate, 1536-well (AID 1445); parameters: species or system Plasmodium falciparum 3D7, 3D7
# T4 sequence (O96935 whole entry): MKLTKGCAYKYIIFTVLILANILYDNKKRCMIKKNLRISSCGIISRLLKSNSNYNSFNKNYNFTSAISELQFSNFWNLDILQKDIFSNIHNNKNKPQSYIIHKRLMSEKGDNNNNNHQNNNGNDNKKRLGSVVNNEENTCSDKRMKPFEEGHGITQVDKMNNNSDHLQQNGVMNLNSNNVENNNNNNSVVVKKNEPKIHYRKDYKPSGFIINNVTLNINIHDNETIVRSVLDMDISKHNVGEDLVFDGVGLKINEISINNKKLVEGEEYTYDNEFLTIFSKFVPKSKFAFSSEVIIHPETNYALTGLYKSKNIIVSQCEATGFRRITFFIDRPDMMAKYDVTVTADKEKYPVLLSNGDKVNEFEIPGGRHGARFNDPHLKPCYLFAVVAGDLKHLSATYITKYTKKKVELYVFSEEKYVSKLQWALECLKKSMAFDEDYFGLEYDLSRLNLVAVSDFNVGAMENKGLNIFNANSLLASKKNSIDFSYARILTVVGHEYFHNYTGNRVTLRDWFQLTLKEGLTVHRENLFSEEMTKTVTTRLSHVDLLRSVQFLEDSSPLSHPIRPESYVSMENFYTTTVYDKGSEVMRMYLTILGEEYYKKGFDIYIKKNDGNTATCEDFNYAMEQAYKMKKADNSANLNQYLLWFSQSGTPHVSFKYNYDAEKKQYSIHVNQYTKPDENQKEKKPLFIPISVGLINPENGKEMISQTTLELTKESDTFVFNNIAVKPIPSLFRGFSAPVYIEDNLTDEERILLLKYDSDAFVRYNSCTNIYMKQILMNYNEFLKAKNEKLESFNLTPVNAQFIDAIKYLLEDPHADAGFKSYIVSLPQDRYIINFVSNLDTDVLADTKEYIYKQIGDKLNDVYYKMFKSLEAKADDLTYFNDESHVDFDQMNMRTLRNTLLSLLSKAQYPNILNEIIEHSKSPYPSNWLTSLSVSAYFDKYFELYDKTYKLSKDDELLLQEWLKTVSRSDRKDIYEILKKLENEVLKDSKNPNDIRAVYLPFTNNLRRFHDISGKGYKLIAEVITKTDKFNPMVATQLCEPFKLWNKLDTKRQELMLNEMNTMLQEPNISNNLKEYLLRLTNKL
# [3] = Trypanosoma cruzi growth suppression in host cells – NIH3T3 host cells, beta-gal luminescence, confirmation (AID 2044); type: functional, cell-based;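 also: intracellular parasites grown in NIH/3T3 mouse fibroblasts as host cells; luminescent beta-galactosidase reporter signal from transgenic T. cruzi replicating inside host cells; inhibitors lower the luminescence signal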
# [4] = NIH3T3 cell viability loss – ATP luminescence, mouse fibroblasts, counter-screen, dose response (AID 2010); type: functional, cell-based;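 also: cells exposed to compound for about 90 hours before reading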
# [5] = NIH-3T3 fibroblast cytotoxicity, dose response, cytotoxicity control, cell-based, fluorescence, Alamar Blue, secondary assay (AID 2327); type: functional;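 also: NIH-3T3 mouse fibroblasts cultured with fluconazole at 8 µg/mL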
# Leucine aminopeptidase = biological target: T5, Leucine aminopeptidase (Plasmodium falciparum 3D7, UniProt Q8IL11); experiment: P. falciparum M17LAP inhibitors, primary screen, biochemical, fluorogenic H-Leu-NHMec substrate, 1536-well (AID 1619); type: functional
# T5 sequence (Q8IL11 whole entry): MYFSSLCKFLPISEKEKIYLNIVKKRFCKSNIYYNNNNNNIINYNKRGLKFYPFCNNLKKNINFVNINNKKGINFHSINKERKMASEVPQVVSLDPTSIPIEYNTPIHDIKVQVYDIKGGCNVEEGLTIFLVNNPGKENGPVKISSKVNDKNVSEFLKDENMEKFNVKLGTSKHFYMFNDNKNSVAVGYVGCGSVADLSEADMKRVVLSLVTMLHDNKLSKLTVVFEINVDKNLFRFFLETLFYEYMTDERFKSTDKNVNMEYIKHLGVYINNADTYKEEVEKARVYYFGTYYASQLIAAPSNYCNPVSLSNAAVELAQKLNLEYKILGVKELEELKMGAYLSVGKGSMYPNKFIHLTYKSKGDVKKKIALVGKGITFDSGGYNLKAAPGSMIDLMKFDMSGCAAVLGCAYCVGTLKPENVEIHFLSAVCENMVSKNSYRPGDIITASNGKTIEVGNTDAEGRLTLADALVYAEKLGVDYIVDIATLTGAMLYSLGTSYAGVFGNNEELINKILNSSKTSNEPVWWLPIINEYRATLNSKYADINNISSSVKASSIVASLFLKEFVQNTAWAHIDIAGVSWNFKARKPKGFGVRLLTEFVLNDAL
# [6] = fluconazole-exposed Candida albicans growth modulators – fluorescence, retest, confirmation (AID 2467); type: functional, cell-based
# Genome polyprotein = Genome polyprotein (dengue virus type 2, UniProt P29990); experiment: flavivirus cap methylation enzyme inhibition – biochemical, confirmation dose response, primary screen (AID 588689); type: functional
# [7] = viability of uninfected HEp-2 cells – cell-based, HTS, cytotoxicity control for RSV inhibitor project, dose response (AID 2410); type: functional; details: human respiratory syncytial virus
# Cytochrome P450 3A4 = Cytochrome P450 3A4 (Homo sapiens, UniProt P08684); details: Potency;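 also: confirmatory qHTS run detecting inhibitors and substrates of CYP3A4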
# [8] = Luminescence Cell-Based Dose Retest to Confirm Inhibitors of Cancer Stem Cells. [Related pubchem assays (depositor defined):AID2717, AID2721]; type: functional; details: Homo sapiens
# INS1 = experiment: INS-1E survival protection against cytokine death – cell-based, luminescence, retest, dose response (AID 449756); type: functional; details: Rattus norvegicus;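 also: cell death triggered by IL-1 beta plus TNF-alpha plus IFN-gamma mixture; protective hits raise ATP signal compared with cytokine alone wells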
# Phospholipase A2, sequence (P04054 whole entry): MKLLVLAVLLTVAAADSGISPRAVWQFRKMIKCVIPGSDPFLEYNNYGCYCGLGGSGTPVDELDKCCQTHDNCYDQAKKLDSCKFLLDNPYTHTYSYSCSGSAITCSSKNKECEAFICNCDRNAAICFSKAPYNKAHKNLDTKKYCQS
# Cytochrome P450 3A4, sequence (P08684 whole entry): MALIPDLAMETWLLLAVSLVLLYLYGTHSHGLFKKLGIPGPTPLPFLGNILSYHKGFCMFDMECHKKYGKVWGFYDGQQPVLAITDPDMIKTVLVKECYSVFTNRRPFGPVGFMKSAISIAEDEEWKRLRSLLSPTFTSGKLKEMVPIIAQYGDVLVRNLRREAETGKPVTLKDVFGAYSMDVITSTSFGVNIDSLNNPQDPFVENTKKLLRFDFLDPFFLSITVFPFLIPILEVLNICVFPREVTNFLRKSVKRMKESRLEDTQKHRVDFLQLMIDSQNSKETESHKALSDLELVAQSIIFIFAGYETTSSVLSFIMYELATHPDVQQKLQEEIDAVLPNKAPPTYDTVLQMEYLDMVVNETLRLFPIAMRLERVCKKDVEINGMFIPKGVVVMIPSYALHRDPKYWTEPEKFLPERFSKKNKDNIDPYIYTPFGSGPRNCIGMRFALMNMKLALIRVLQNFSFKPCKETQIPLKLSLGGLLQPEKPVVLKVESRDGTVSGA
# Genome polyprotein, sequence (P29990 2492-3391 limits assumed): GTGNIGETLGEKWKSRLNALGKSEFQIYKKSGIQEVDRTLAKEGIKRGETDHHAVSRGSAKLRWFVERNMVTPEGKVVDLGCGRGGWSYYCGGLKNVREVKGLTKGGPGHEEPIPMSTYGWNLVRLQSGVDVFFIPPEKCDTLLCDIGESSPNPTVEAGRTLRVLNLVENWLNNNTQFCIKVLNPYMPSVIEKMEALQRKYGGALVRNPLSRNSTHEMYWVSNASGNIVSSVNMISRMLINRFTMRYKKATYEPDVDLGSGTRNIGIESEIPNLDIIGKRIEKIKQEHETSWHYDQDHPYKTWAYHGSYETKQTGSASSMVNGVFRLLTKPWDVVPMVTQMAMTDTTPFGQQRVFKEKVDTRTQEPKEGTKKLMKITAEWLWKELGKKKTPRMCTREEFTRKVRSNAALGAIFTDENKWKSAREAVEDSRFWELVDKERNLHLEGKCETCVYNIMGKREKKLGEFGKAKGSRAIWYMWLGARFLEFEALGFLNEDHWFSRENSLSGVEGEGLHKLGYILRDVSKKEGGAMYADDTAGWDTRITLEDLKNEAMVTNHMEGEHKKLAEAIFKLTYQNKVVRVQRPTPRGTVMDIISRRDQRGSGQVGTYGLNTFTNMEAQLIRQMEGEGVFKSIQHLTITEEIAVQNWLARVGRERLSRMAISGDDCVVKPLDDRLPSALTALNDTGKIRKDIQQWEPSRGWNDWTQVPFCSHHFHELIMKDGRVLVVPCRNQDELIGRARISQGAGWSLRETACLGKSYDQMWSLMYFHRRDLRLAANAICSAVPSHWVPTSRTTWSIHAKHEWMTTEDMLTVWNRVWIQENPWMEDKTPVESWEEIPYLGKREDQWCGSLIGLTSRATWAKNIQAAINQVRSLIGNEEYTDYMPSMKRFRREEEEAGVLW
smiles,measurement,setting,value
O=C1NC(=O)N(c2ccc(Cl)cc2)C(=O)/C1=C/NCCN1CCCCC1,EC50,[1],> 300 µM (not active)
same,EC50,[2],> 300 µM (not active)
O=C(COc1ccccc1-c1ccccc1)NCc1cccc(Cl)c1,IC50,Cysteine protease ATG4B,11.4 µM (active)
same,IC50,Phospholipase A2,7.72 µM (active)
O=C(COc1ccccc1/C=C1\SC(=O)NC1=O)Nc1ccc(F)cc1,IC50,Aminopeptidase N,27.5 µM (active)
CCOc1ccc(NCc2ccccc2OCc2cccc(F)c2)cc1,EC50,[3],1.29 µM (active)
same,EC50,[4],> 60 µM (not active)
same,IC50,Cysteine protease ATG4B,8.88 µM (active)
same,IC50,Phospholipase A2,5.3 µM (active)
O=C(O)CSc1nc(-c2ccc(Cl)cc2)nc2c1oc1ccccc12,EC50,[5],6.56 µM (active)
same,IC50,Leucine aminopeptidase,34.6 µM (active)
same,IC50,Aminopeptidase N,82.7 µM (active)
same,EC50,[6],1.93 µM (active)
same,IC50,Genome polyprotein,40.6 µM (active)
O=C1CCCC2=C1C(c1ccccc1)C1C(=O)c3ccccc3C1=N2 (stereo not given),CC50,[7],> 50 µM (active)
same,IC50,cells,39.8 µM (active)
COc1ccc(/C=C/C(=O)NCc2nc3ccccc3[nH]2)cc1OC,IC50,cells,30.6 µM (active)
COC(=O)C1=C(C)N(Cc2ccccc2)C2=C3C(=O)N(c4ccccc4)C(=O)C3[C@@](O)(C(=O)OC)C(=O)N2C1c1ccccc1 (stereo not given in full),AC50,Cytochrome P450 3A4,3.98 µM (inconclusive) and 3.16 µM (inconclusive)
Cc1c(Cl)cccc1N=C(S)N1CCN(C(=O)C2CCCO2)CC1 (stereo not given),EC50,[1],> 300 µM (not active)
same,EC50,[2],> 300 µM (not active)
Cc1nc2ccccc2c(=O)n1NC(=O)c1ccco1,IC50,Aminopeptidase N,70.7 µM (active)
N#CCSc1nc2ccccc2c2nc3ccccc3n12,CC50,[7],7.62 µM (active)
same,AC50,[8],3.31 µM (active)
same,AC50,INS1,8.38 µM (active)
same,IC50,cells,9.82 µM (active)
